Measured values from patent US20160090556A1, “PRODUCTS COMPRISING MALODOR REDUCTION MATERIALS” (The Procter & Gamble Company, priority 2014, published 2016).

experiment: Liquid dish neat product liquid-air partition coefficient; assay type: physicochemical; settings: not given

SMILES	Log of liquid dish neat product liquid-air partition coefficient (Comment Code K/L)
C=CCCC(=O)c1ccccc1 [Material 792]	K (Log of liquid dish neat product liquid-air partition coefficient greater than or equal to −7)
CCCCCCCCC=CC#N [Material 827]	K (Log of liquid dish neat product liquid-air partition coefficient greater than or equal to −7)
CCC=C(C)C(O)CCCCC (centres unmarked) [Material 1104]	K (Log of liquid dish neat product liquid-air partition coefficient greater than or equal to −7)
Cc1cccc(CCO)c1 [Material 928]	K (Log of liquid dish neat product liquid-air partition coefficient greater than or equal to −7)

same assay, conditions: class code letter within Comment Code

SMILES	Log of liquid dish neat product liquid-air partition coefficient (Comment Code K/L)
C=CC1(C)CCC(C(C)C)=CC1C(=C)C (centres unmarked) [Material 461]	K (Log of liquid dish neat product liquid-air partition coefficient greater than or equal to −7)
CCC=CCC1C(=O)CCC1CC(=O)OC (centres unmarked) [Material 112]	K (Log of liquid dish neat product liquid-air partition coefficient greater than or equal to −7)
CC(C)CC1CC(C)(O)CCO1 (centres unmarked) [Material 350]	K (Log of liquid dish neat product liquid-air partition coefficient greater than or equal to −7)
O=C1CCCCCCCCCCCCCCO1 [Material 370]	K (Log of liquid dish neat product liquid-air partition coefficient greater than or equal to −7)
C=CC(=C)CCCC(C)(C)O [Material 34]	K (Log of liquid dish neat product liquid-air partition coefficient greater than or equal to −7)
OC1CCC2CCCCC2C1 (centres unmarked) [Material 474]	K (Log of liquid dish neat product liquid-air partition coefficient greater than or equal to −7)
C=C(C)C1CC=C(C)C(O)C1 (centres unmarked) [Material 170]	K (Log of liquid dish neat product liquid-air partition coefficient greater than or equal to −7)
CC1CCC(C(C)(C)O)CC2=C1CCC2C (centres unmarked) [Material 292]	K (Log of liquid dish neat product liquid-air partition coefficient greater than or equal to −7)
CCCCCCOC(=O)c1ccccc1 [Material 271]	K (Log of liquid dish neat product liquid-air partition coefficient greater than or equal to −7)

same assay, conditions: code letters K, L

SMILES	Comment Code: Log of liquid dish neat product liquid-air partition coefficient
COc1ccc(COC(C)=O)cc1 [Material 664]	K (Log of liquid dish neat product liquid-air partition coefficient greater than or equal to −7)
C=CC(C)CCCC(C)(C)O (centres unmarked) [Material 437]	K (Log of liquid dish neat product liquid-air partition coefficient greater than or equal to −7)
C/C=C(\C)C(=O)OCC/C=C\CC [Material 536]	K (Log of liquid dish neat product liquid-air partition coefficient greater than or equal to −7)
CC(=O)C1=C(C)[C@@H]2C[C@@]3(C1)[C@H](C)CC[C@H]3C2(C)C [Material 1129]	K (Log of liquid dish neat product liquid-air partition coefficient greater than or equal to −7)
CC(C)=CCC/C(C)=C/COC=O [Material 306]	K (Log of liquid dish neat product liquid-air partition coefficient greater than or equal to −7)
Cc1cc(O)cc(C)c1Cl [Material 557]	K (Log of liquid dish neat product liquid-air partition coefficient greater than or equal to −7)

same assay, conditions: codes K/L of the Comment Code, Table 1

SMILES	Comment Code: Log of liquid dish neat product liquid-air partition coefficient
CC(=O)C1=C(C)[C@@H]2C[C@@]3(C1)[C@H](C)CC[C@H]3C2(C)C [Material 1129]	K (Log of liquid dish neat product liquid-air partition coefficient greater than or equal to −7)
